{"source": "patent US20050020630A1", "about": "“Cycloalkyl and heterocycloalkyl substituted benzothiophenes as therapeutic agents” (priority 2003, published 2005)"}
{"biological_target": "T1, PI3Kγ (Homo sapiens, UniProt P48736)", "T1 construct": "HA; made in house; host or cells: Spodoptera frugiperda (Sf9) cells, baculovirus co-infection", "T1 sequence (P48736 whole entry, species assumed)": "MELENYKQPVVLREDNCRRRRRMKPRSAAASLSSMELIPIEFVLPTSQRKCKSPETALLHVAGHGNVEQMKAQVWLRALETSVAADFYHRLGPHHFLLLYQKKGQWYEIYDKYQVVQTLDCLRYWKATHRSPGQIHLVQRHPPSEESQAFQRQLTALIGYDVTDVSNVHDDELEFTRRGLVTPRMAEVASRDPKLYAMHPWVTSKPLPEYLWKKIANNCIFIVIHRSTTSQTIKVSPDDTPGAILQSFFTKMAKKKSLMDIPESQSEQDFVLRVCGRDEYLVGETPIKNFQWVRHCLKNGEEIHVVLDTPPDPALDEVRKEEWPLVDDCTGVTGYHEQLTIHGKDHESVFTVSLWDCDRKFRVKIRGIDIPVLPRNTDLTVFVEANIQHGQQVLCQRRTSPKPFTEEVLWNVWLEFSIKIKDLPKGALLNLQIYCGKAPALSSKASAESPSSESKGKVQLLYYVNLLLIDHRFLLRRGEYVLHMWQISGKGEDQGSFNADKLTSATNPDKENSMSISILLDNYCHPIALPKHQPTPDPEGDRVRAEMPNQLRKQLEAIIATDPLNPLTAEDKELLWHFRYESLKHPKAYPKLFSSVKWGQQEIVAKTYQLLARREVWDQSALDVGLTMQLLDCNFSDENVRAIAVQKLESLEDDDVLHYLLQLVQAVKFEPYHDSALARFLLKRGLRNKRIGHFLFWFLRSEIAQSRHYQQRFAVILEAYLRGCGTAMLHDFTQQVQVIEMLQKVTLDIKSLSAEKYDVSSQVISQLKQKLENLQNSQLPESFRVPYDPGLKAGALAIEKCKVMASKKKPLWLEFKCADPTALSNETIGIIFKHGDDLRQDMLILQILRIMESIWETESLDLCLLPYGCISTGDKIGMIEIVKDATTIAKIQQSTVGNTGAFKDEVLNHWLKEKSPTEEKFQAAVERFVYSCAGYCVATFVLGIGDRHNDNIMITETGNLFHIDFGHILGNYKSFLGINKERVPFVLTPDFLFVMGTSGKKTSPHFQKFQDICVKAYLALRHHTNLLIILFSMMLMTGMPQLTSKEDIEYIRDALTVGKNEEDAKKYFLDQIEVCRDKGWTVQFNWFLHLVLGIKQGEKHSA", "T1 sequence (Q8WYR1 whole entry partner, species assumed)": "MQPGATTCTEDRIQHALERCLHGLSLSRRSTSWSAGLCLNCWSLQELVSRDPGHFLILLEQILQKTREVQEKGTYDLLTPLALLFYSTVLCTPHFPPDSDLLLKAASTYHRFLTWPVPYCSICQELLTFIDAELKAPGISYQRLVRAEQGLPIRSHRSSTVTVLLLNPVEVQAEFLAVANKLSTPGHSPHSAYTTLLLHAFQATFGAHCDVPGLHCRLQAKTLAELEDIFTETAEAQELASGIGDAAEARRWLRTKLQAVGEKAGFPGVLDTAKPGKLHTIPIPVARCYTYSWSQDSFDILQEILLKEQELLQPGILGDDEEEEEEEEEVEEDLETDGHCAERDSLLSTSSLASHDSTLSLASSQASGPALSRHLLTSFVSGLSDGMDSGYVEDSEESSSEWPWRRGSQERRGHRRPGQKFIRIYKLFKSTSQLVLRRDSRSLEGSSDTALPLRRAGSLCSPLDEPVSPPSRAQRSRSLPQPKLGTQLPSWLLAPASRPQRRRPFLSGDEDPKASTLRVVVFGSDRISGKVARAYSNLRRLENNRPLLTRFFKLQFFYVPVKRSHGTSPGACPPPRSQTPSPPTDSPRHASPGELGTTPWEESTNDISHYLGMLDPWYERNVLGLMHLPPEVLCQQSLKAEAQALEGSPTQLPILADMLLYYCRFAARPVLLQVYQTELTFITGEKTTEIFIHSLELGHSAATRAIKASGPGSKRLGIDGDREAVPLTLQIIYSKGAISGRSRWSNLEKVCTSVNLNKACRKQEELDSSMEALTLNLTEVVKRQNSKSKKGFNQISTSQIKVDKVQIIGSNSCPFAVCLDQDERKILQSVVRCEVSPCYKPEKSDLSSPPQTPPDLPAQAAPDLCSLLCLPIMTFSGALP", "assay": "PI3Kγ In Vitro Kinase Assay", "type": "biochemical", "settings": "purified recombinant p101/p110 γ protein with G protein β1/γ2 subunits; 20 μM ATP, 25 μM PIP2; 20 minutes at room temperature; radioactive PIP3 readout", "protocol": "Spodtera frugiperda cells, grown in ESF921 media, were coinfected with baculovirus expressing a glu-tagged p101 and baculovirus expressing an HA-tagged p110γ, at a 3:1 ratio of p101 baculovirus to p110γ baculovirus. Sf9 cells were grown to 1×10^7 total cells/mL in 10 L bioreactors and harvested 48-72 hours post infection. Samples of infected cells were then tested for expression of p101/p110 γ PI3 kinase by immunoprecipitation and Western Blot analysis methods (see below). To purify PI3Kγ, 4 volumes of room temperature hypotonic lysis buffer (1 mM MgCl2, 1 mM DTT, 5 mM EGTA, 1 mM Pefabloc, 0.5 μM aprotinin, 5 μM leupeptin, 2 μM pepstatin, 5 μM E64, pH 8) per gram of cell paste, was poured onto frozen cell pellets with stirring, then lysed in a nitrogen “bomb” at 400 psi (599HC […], Parr Instrument Co, Moline, Ill.). NaCl was added to 150 mM, and sodium cholate was added to 1% and mixed for another 45 minutes. The lysates were clarified by centrifugation for 25 minutes at 14,000 rpm. The lysates were then loaded over anti-glu-linked Protein-G Sepaharose beads (Covance Research Products, Richmond, Calif.) using 20 mL resin/50 g cell paste. The column was washed with 15 volumes of wash buffer (1 mM DTT, 0.2 mM EGTA, 1 mM Pefabloc, 0.5 μM aprotinin, 5 μM leupeptin, 2 μM pepstatin, 5 μM E64, 150 mM NaCl, 1% sodium cholate, pH 8). PI3Kγ was eluted with 6 column volumes of wash buffer that contain 100 μg/mL of a peptide that competes for binding of the glu tag. The column fractions with the eluted protein (determined by taking OD280 readings) were collected and dialyzed in 0.2 mM EGTA, 1 mM DTT, 1 mM Pefabloc, 5 μM leupeptin, 0.5% sodium cholate, 150 mM NaCl, and 50% glycerol, pH 8. The fractions were stored at -80° C. until further use. Spodtera frugiperda cells were coinfected with baculovirus expressing a glu-tagged G protein β1 and baculovirus expressing a G protein β2, at a 1:1 ratio of glu-tagged G protein β1 baculovirus to G protein β2 baculovirus. Sf9 cells are grown in 10 L bioreactors and harvested 48-72 hours post infection. Samples of infected cells were tested for G protein β1/β2 expression by Western Blot analysis, as described below. Cell lysates were homogenized and loaded onto a column of glu-tagged beads as in Biological Example 1 and competed off the column with a glu peptide and processed as described in Biological Example 1. The inhibitory properties of the compounds in Table 1 were assayed in an in vitro PI3K assay. In a 96-well polypropylene plate, each well was spotted with 2 μL of 50 times the desired final concentration of compound in DMSO. Purified recombinant p101/p110 γ protein (0.03 μg; 2.7 nM) and G protein β1/γ2 subunits (0.09 μg; 57.7 nM) for each reaction was combined in the assay buffer (30 mM HEPES, 100 mM NaCl, 1 mM EGTA, and 1 mM DTT). ATP and [γ-^32P-ATP] (0.09 μCi) were added to this mixture so that the final ATP concentration in the reaction was 20 μM. Lipid micelles were formed by sonicating phosphatidylinositol-4,5-diphosphate (PIP2), phosphatidylethanolamine (PE), and Na-cholate in the assay buffer for 10 minutes, adding MgCl2 and incubating on ice for 20 minutes, for final concentrations of 25 μM PIP2, 300 μM PE, 0.02% Na-cholate, and 10 mM MgCl2 in the reaction. The reactions were started by adding equal volumes lipid and enzyme mixture in a total volume of 50 μL, allowed to run for 20 minutes at room temperature, and stopped with 100 μL 75 mM H3PO4. The lipid product was transferred to a glass fiber filter plate and washed with 75 mM H3PO4 several times. The presence of radioactive lipid product (PIP3) was measured by adding Wallac Optiphase mix to each well and counting in a Wallac 1450 Trilux plate reader (PerkinElmer Life Sciences Inc., Boston, Mass. 02118). The IC50 for each compound tested is reported in μM in Table 1: […]", "units": {"IC50": "µM"}}
{"molecule": "3-(3,5-Dimethyl-cyclohexloxy)-5,6-dimethoxy-benzo[b]thiophene-2-carboxylic acid (1H-tetrazol-5-yl)-amide [Example 34]", "IC50": 0.032}
{"molecule": "3-Cycloheptylmethoxy-5,6-dimethoxy-benzo[b]thiophene-2-carboxylic acid (1H-tetrazol-5-yl)-amide [Example 42]", "IC50": 0.036}
{"molecule": "5,6-Dimethoxy-3-(3-methyl-oxetan-3-ylmethylmethoxy)-benzo[b]thiophene-2-carboxylic acid (1H-tetrazol-5-yl)-amide [Example 25]", "IC50": 0.445}
{"molecule": "COc1cc2c(OC3CCCC(C)C3)c(C(=O)Nc3nn[nH]n3)sc2cc1C", "note": "(single isomer, unassigned) [Example 2, 5-Methoxy-6-methyl-3-(3-methyl-cyclohexyloxy)-benzo[b]thiophene-2-carboxylic acid (2H-tetrazol-5-yl)-amide]", "IC50": 0.024}
{"molecule": "COc1cc2c(OC3CCCC(C)C3)c(C(=O)Nc3nn[nH]n3)sc2cc1C", "note": "(single isomer, unassigned) [Example 7, 5-Methoxy-6-methyl-3-(3-methyl-cyclohexyloxy)-benzo[b]thiophene-2-carboxylic acid (2H-tetrazol-5-yl)-amide]", "IC50": 0.003}
{"molecule": "COc1cc2c(OC3CCOCC3)c(C(=O)Nc3nn[nH]n3)sc2cc1C", "note": "[Example 1, 5-Methoxy-6-methyl-3-(tetrahydro-pyran-4-yloxy)-benzo[b]thiophene-2-carboxylic acid (2H-tetrazol-5-yl)-amide]", "IC50": 0.024}
{"molecule": "COc1cc2c(OC3CC(C)(C)CC(C)(C)C3)c(C(=O)Nc3nn[nH]n3)sc2cc1C", "note": "[Example 3, 5-Methoxy-6-methyl-3-(3,3,5,5-tetramethyl-cyclohexyloxy)-benzo[b]thiophene-2-carboxylic acid (2H-tetrazol-5-yl)-amide]", "IC50": 0.165}
{"molecule": "COc1cc2c(OC3CC(C)CC(C)(C)C3)c(C(=O)Nc3nn[nH]n3)sc2cc1C", "note": "(stereo not drawn) [Example 4, 5-Methoxy-6-methyl-3-(3,3,5-trimethyl-cyclohexyloxy)-benzo[b]thiophene-2-carboxylic acid (2H-tetrazol-5-yl)-amide]", "IC50": 0.009}
{"molecule": "COc1cc2c(OC3CCCC(C)(C)C3)c(C(=O)Nc3nn[nH]n3)sc2cc1C", "note": "(stereo not drawn) [Example 5, 3-(3,3-Dimethyl-cyclohexyloxy)-5-methoxy-6-methyl-benzo[b]thiophene-2-carboxylic acid (2H-tetrazol-5-yl)-amide]", "IC50": 0.008}
{"molecule": "COc1cc2c(OC3CCCCC3)c(C(=O)Nc3nn[nH]n3)sc2cc1C", "note": "[Example 6, 3-Cyclohexyloxy-5-methoxy-6-methyl-benzo[b]thiophene-2-carboxylic acid (2H-tetrazol-5-yl)-amide]", "IC50": 0.007}
{"molecule": "COc1cc2c(OC3CCCCCC3)c(C(=O)Nc3nn[nH]n3)sc2cc1C", "note": "[Example 8, 3-Cycloheptyloxy-5-methoxy-6-methyl-benzo[b]thiophene-2-carboxylic acid (2H-tetrazol-5-yl)-amide]", "IC50": 0.005}
{"molecule": "COc1cc2c(OC3CCN(Cc4ccccc4)CC3)c(C(=O)Nc3nn[nH]n3)sc2cc1C", "note": "[Example 9, 3-(1-Benzyl-piperidin-4-yloxy)-5-methoxy-6-methyl-benzo[b]thiophene-2-carboxylic acid (2H-tetrazol-5-yl)-amide]", "IC50": 0.25}
{"molecule": "COc1cc2c(OC3CCCNC3)c(C(=O)Nc3nn[nH]n3)sc2cc1C", "note": "(stereo not drawn) [Example 10]", "IC50": 1.29}
{"molecule": "COc1cc2c(OC3CCN(C4CCCCC4)CC3)c(C(=O)Nc3nn[nH]n3)sc2cc1C", "note": "[Example 11, 3-(1-Cyclohexyl-piperdin-4-yloxy)-5-methoxy-6-methyl-benzo[b]thiophene-2-carboxylic acid (2H-tetrazol-5-yl-amide)]", "IC50": 0.965}
{"molecule": "COc1cc2c(OC3CCNCC3)c(C(=O)Nc3nn[nH]n3)sc2cc1C", "note": "[Example 12, 5-Methoxy-6-methyl-3-(piperidiny-4yloxy)-benzo[b]thiophene-2-carboxylic acid (2H-tetrazol-5-yl)amide]", "IC50": 0.715}
{"molecule": "COc1cc2c(OC3CCCN(C(C)=O)C3)c(C(=O)Nc3nn[nH]n3)sc2cc1C", "note": "(stereo not drawn) [Example 13, 3-(1-Acetyl-piperidin-3-yloxy)-5-methyoxy-6-methyl-benzo[b]thiophene-2-carboxylic acid (2H-tetrazol-5-yl)-amide]", "IC50": 0.072}
{"molecule": "COc1cc2c(OC3CCCN(C(=O)OC(C)(C)C)C3)c(C(=O)Nc3nn[nH]n3)sc2cc1C", "note": "(stereo not drawn) [Example 14]", "IC50": 0.053}
{"molecule": "COc1cc2c(OCCCC3CCCCC3)c(C(=O)Nc3nn[nH]n3)sc2cc1C", "note": "[Example 15, 3-(3-Cyclohexyl-propoxy)-5-Methoxy-6-methyl-benzo[b}thiophene-2-carboxylic acid (2H-tetrazol-5-yl)amide]", "IC50": 0.028}
{"molecule": "COc1cc2c(OC3CCN(C(C)=O)CC3)c(C(=O)Nc3nn[nH]n3)sc2cc1C", "note": "[Example 16, 3-(1-Acetyl-piperidin-4-yloxy)-5-methoxy-6-methyl-benzo[b]thiophene-2-carboxylic acid (2H-tetrazol-5-yl)-amide]", "IC50": 0.025}
{"molecule": "COc1cc2c(OC3CCN(C(=O)OC(C)(C)C)CC3)c(C(=O)Nc3nn[nH]n3)sc2cc1C", "note": "[Example 17, 4-[5-Methoxy-6-methyl-2-(2H-tetrazol-5-ylcarbamoyl)-benzo[b]thiophene-3-yloxy]-piperidine-1-carboxylic acid tert-butyl ester]", "IC50": 0.024}
{"molecule": "COc1cc2c(OCC3(C)CC3)c(C(=O)Nc3nn[nH]n3)sc2cc1C", "note": "[Example 18, 5-Methoxy-6-methyl-3-(1-methyl-cyclopropylmethoxy)-benzo[b]thiophene-2-carboxylic acid (2H-tetrazol-5-yl)-amide]", "IC50": 0.02}
{"molecule": "COc1cc2sc(C(=O)Nc3nnn[nH]3)c(OCCC3CC3)c2cc1OC", "note": "[Example 19, 3-(2-Cyclopropyl-ethoxy)-5,6-dimethoxy-benzo[b]thiophene-2-carboxylic acid (1H-tetrazol-5-yl)-amide]", "IC50": 0.371}
{"molecule": "COc1cc2sc(C(=O)Nc3nn[nH]n3)c(OCC3CC3(Cl)Cl)c2cc1OC", "note": "(stereo not drawn) [Example 20, 3-(2,2-Dichloro-cyclopropylmethoxy)-5,6-dimethoxy-benzo[b]thiophene-2-carboxylic acid (2H-tetrazol-5-yl)-amide]", "IC50": 0.453}
{"molecule": "COc1cc2sc(C(=O)Nc3nnn[nH]3)c(OCC3CCCCC3)c2cc1OC", "note": "[Example 21, 3-Cyclohexylmethoxy-5,6-dimethoxy-benzo[b]thiophene-2-carboxylic acid (1H-tetrazol-5-yl)-amide]", "IC50": 0.195}
{"molecule": "COc1cc2sc(C(=O)Nc3nn[nH]n3)c(OC3CCCCC3)c2cc1OC", "note": "[Example 22, 3-Cyclohexyloxy-5,6-dimethoxy-benzo[b]thiophene-2-carboxylic acid (2H-tetrazol-5-yl)-amide]", "IC50": 0.034}
{"molecule": "COc1cc2sc(C(=O)Nc3nn[nH]n3)c(OC3CCC(C(C)(C)C)CC3)c2cc1OC", "note": "(stereo not drawn) [Example 23, 3-(4-tert-Butyl-cyclohexyloxy)-5,6-dimethoxy-benzo[b]thiophene-2-carboxylic acid (2H-tetrazol-5-yl)-amide]", "IC50": 0.056}
{"molecule": "COc1cc2sc(C(=O)Nc3nnn[nH]3)c(OC3CC(C)CC(C)C3)c2cc1OC", "note": "(stereo not drawn) [Example 24, 3-(3,5-dimethyl-cyclohexyloxy)-5,6-dimethoxy-benzo[b]thiophene-2-carboxylic acid (2H-tetrazol-5-yl)-amide]", "IC50": 0.103}
